Results as given in patent US4647576A, “Trans-6-[2-(substitutedpyrrol-1-yl)alkyl]-pyran-2-one inhibitors of cholesterol synthesis” (Warner-Lambert Company, priority 1984, dated 1987).

Legend:
HMG-CoA reductase = molecular target: T1, HMG-CoA reductase (Rattus norvegicus, UniProt P51639); experiment: COR screen: conversion of 14C-HMG-CoA to 14C-mevalonate by purified HMG-CoA reductase; assay type: biochemical; details: purified enzyme preparation, footnote: adjusted for a standard IC50 value for compactin (internal standard)
T1 sequence (P51639 1-887): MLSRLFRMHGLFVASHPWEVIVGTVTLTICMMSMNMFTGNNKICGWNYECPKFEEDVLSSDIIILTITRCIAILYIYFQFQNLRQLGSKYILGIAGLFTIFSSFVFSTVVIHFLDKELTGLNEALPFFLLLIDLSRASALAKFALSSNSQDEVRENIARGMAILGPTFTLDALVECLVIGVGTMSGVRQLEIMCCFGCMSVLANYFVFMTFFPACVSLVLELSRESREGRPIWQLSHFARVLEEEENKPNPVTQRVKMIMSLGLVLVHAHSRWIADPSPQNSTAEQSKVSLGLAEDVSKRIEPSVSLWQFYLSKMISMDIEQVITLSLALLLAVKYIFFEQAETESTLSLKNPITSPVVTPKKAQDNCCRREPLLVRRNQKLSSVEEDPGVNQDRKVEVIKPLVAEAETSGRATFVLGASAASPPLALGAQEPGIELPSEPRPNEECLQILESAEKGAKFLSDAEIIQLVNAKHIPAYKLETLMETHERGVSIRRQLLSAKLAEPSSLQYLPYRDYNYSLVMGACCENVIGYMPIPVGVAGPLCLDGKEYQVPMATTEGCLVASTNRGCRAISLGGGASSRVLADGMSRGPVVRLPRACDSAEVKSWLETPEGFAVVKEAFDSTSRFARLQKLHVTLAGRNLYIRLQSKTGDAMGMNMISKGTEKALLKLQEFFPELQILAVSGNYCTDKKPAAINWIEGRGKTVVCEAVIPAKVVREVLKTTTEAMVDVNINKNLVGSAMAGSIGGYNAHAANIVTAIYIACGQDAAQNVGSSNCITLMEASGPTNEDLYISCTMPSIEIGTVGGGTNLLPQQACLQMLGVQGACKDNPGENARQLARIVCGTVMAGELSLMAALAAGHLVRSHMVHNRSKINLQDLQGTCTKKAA
Protocol: A second method (designated COR screen) employed the procedure detailed by T. Kita, et al., J. Clin. Invest., (1980), 66: 1094-1100. In this method, the amount of ^14 C-HMG-CoA converted to ^14 C-mevalonate in the presence of a purified enzyme preparation of HMG-CoA reductase was measured. The micromolar concentration of compound required for 50% inhibition of cholesterol synthesis was measured and recorded as an IC50 value.

[1] = system: sterol synthesis by rat liver homogenate; experiment: CSI screen: inhibition of sterol synthesis (14C-acetate incorporation into nonsaponifiable lipid) by rat liver homogenate; assay type: biochemical; details: one-hour period, footnote: adjusted for a standard IC50 value for compactin (internal standard)
Protocol: The ability of compounds of the present invention to inhibit the biosynthesis of cholesterol was measured by two methods. A first method (designated CSI screen) utilized the procedure described by R. E. Dugan et al., Archiv. Biochem. Biophys., (1972), 152, 21-27. In this method, the level of HMG-CoA enzyme activity in standard laboratory rats is increased by feeding the rats a chow diet containing 5% cholestyramine for four days, after which the rats are sacrificed.
The rat livers are homogenized, and the incorporation of cholesterol-^14 C-acetate into nonsaponifiable lipid by the rat liver homogenate is measured. The micromolar concentration of compound required for 50% inhibition of sterol synthesis over a one-hour period is measured, and expressed as an IC50 value.

CC(C)c1ccc(-c2ccc(F)cc2)n1CC[C@H]1C[C@H](O)CC(=O)O1 (relative stereo) [Compound 1, trans-6-[2-[2-(4-fluorophenyl)-5-(1-methylethyl)-1H-pyrrol-1-yl]ethyl]tetrahydro-4-hydroxy-2H-pyran-2-one]
IC50 (HMG-CoA reductase): 280 nM
IC50 [1]: 480 nM

CC(C)c1c(Cl)c(Cl)c(-c2ccc(F)cc2)n1CC[C@H]1C[C@H](O)CC(=O)O1 (relative stereo) [Compound 2, 6-[2-[2-(4-fluorophenyl)-3,4-dichloro-5-(1-methylethyl)-1H-pyrrol-1-yl]ethyl]tetrahydro-4-hydroxy-trans-2H-pyran-2-one]
IC50 (HMG-CoA reductase): 24 nM
IC50 [1]: 160 nM

CC(C)c1c(Br)c(Br)c(-c2ccc(F)cc2)n1CC[C@H]1C[C@H](O)CC(=O)O1 (relative stereo) [Compound 3, 6-[2-[2-(4-fluorophenyl)-3,4 dibromo-5-(1-methylethyl)-1H-pyrrol-1-yl]ethyl]tetrahydro-4-hydroxy-trans-2H-pyran-2-one]
IC50 (HMG-CoA reductase): 1 nM
IC50 [1]: 220 nM

COC(=O)c1c(C(=O)OC)c(C(C)C)n(CC[C@@H]2C[C@@H](O)CC(=O)O2)c1-c1ccc(F)cc1 (relative stereo) [Compound 4, Dimethyl-2-(4-Fluorophenyl)-5-(1-methylethyl)-1-[2-(tetrahydro-4-hydroxy-6-oxo-2H-pyran-2-yl)ethyl]-1H-pyrrole-3,4-dicarboxylate]
IC50 (HMG-CoA reductase): 80 nM
IC50 [1]: 110 nM

CC[C@H](C)C(=O)O[C@H]1CCC=C2C=C[C@H](C)[C@H](CC[C@@H]3C[C@@H](O)CC(=O)O3)[C@H]21 [Compound 5, Compactin, reference compound]
IC50 (HMG-CoA reductase): 28 nM
IC50 [1]: 26 nM
